# Read-outs that look alike come from different tables or passages of the source.
# How the values were obtained:
# Assay type in all cases: biochemical
# [1] = target: SRC (Homo sapiens, UniProt P12931); test: Inhibition of a panel of kinases, in vitro HotSpot kinase assay: SRC
# Protocol: (§1) The degree of inhibition of a panel of kinases is determined using the in vitro HotSpot kinase assay (purified enzymes, ^33P-ATP, an appropriate substrate and 1 μM ATP).
# [2] = target: EGFR (Homo sapiens, UniProt P00533); test: Inhibition of a panel of kinases, in vitro HotSpot kinase assay: EGFR
# Protocol: as §1
# [3] = target: T1, TEC (Homo sapiens, UniProt P42680); test: Inhibition of a panel of kinases, in vitro HotSpot kinase assay: TEC
# T1 sequence (P42680 1-631): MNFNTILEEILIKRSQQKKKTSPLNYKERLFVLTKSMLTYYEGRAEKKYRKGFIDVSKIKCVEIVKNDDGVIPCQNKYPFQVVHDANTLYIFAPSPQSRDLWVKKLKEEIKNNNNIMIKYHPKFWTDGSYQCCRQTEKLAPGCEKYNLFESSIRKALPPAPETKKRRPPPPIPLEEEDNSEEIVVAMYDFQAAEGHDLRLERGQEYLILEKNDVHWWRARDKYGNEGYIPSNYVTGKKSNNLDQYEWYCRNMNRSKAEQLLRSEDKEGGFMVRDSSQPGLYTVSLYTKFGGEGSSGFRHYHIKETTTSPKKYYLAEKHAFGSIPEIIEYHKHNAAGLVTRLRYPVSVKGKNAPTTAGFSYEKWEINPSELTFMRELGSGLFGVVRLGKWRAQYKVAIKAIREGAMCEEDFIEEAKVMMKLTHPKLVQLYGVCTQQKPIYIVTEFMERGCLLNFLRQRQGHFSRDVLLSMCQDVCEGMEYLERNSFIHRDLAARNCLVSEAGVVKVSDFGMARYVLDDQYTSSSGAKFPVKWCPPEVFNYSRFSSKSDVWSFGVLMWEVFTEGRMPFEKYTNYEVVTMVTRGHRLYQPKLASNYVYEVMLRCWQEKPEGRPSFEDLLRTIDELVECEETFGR
# Protocol: as §1
# [4] = target: T2, ITK (Homo sapiens, UniProt Q08881); test: Inhibition of a panel of kinases, in vitro HotSpot kinase assay: ITK
# T2 sequence (Q08881 1-620): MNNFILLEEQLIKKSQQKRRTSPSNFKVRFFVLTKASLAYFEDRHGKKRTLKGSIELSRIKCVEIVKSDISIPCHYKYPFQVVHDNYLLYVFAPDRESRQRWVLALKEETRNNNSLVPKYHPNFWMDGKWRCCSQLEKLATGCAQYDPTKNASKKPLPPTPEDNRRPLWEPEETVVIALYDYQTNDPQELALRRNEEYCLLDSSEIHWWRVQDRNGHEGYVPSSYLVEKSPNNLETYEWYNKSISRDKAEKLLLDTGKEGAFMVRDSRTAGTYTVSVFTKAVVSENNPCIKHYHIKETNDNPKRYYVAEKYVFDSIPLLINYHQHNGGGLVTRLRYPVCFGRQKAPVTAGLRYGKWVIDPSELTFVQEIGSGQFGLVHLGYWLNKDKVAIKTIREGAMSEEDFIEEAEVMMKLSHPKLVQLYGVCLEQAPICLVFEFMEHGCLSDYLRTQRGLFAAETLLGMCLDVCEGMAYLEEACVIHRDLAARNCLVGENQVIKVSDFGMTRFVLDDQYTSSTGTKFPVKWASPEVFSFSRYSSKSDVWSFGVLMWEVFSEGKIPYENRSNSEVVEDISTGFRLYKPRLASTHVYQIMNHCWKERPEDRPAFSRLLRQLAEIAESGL
# Protocol: as §1
# [5] = target: LCK (Homo sapiens, UniProt P06239); test: Inhibition of a panel of kinases, in vitro HotSpot kinase assay: LCK; settings: read-out: IC50 LCK
# [6] = target: T3, JAK3 (Homo sapiens, UniProt P52333); test: Inhibition of a panel of kinases, in vitro HotSpot kinase assay: JAK3; settings: read-out: IC50 JAK3
# T3 sequence (P52333 1-1124): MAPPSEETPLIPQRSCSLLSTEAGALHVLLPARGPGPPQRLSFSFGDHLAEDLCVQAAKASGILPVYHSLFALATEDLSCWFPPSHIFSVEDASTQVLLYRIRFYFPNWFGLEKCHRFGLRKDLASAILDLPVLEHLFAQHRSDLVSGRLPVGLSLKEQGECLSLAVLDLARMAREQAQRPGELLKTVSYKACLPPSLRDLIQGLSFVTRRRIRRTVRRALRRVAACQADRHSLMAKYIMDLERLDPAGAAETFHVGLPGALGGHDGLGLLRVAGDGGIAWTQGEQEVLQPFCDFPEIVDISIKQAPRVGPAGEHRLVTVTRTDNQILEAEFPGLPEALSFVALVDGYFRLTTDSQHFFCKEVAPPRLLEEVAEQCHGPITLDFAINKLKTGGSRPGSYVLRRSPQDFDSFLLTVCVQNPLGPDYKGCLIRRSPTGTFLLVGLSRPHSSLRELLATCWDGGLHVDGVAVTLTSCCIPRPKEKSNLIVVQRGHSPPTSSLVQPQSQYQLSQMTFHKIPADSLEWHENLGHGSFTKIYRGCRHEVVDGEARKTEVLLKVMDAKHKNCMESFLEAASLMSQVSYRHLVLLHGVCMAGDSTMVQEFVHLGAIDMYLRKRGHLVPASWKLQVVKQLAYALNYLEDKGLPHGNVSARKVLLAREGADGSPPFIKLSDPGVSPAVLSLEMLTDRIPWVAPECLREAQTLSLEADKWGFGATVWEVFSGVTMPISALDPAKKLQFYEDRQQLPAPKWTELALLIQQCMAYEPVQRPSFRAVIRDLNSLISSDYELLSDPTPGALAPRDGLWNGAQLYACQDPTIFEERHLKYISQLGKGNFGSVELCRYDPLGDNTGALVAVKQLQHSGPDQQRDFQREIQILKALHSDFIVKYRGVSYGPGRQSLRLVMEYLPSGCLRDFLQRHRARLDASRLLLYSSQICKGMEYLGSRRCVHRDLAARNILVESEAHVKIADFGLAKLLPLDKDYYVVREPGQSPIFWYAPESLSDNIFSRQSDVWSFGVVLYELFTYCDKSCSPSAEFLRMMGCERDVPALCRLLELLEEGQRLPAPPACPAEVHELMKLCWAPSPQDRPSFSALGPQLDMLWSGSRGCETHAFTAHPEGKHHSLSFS
# [7] = Table 13, A compounds, 1 μM ATP
# Sequence of EGFR (P00533 25-1210): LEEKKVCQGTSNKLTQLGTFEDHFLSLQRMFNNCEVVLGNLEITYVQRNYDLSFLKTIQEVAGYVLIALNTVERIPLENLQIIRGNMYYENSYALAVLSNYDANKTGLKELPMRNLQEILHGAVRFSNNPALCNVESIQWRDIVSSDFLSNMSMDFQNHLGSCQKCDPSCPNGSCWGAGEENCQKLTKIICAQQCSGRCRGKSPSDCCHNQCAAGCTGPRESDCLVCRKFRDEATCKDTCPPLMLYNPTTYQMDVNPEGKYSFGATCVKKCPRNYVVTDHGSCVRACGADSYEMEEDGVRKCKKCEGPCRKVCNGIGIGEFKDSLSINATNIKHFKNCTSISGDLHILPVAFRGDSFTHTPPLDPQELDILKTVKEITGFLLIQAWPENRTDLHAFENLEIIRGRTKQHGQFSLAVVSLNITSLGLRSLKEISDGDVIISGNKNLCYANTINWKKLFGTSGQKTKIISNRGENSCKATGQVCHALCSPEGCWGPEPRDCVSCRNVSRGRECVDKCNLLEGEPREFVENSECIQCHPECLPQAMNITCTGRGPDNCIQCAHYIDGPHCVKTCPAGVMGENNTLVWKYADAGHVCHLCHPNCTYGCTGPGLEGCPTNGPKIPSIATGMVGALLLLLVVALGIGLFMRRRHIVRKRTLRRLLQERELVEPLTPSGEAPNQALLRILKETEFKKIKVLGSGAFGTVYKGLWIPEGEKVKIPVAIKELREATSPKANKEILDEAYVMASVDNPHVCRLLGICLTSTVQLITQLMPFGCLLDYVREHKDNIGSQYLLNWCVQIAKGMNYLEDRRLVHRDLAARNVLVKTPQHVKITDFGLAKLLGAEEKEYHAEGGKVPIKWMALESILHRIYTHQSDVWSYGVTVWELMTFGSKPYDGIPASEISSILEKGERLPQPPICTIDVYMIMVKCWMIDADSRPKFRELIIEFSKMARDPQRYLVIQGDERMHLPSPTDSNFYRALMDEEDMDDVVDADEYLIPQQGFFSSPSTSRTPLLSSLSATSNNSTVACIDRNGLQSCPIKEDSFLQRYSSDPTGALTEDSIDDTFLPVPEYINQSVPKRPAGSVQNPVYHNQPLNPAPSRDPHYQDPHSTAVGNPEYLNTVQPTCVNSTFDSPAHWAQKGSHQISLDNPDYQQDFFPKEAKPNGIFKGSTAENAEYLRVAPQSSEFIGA
# Sequence of SRC (P12931 whole entry): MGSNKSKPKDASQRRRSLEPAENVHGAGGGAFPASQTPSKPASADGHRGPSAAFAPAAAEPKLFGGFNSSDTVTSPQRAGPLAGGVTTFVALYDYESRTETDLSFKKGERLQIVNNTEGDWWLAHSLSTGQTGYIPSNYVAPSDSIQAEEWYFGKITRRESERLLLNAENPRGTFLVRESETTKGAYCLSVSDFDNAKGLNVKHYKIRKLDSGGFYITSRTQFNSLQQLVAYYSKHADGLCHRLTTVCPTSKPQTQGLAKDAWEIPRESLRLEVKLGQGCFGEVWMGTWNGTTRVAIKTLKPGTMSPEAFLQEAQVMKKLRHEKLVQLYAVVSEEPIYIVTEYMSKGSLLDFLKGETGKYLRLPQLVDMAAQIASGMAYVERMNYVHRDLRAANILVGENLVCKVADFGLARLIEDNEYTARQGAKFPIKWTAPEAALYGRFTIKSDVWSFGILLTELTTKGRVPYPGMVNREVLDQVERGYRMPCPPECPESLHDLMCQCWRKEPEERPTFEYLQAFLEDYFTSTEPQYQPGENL
# Sequence of LCK (P06239 whole entry): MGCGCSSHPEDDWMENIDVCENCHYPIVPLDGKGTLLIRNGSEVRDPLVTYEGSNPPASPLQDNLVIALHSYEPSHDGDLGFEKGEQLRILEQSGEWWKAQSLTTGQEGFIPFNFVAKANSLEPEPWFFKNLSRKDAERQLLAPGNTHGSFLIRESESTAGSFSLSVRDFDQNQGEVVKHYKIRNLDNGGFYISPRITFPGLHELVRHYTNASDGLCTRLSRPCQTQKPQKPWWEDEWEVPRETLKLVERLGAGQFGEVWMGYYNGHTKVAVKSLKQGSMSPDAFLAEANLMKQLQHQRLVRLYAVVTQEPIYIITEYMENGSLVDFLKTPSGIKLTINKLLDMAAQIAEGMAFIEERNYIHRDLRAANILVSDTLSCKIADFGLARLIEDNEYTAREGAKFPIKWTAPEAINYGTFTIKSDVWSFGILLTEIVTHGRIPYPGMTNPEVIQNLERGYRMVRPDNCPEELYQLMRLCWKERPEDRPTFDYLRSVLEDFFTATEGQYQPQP
SMILES,"IC50 ([1]; E compounds, Table 17) [nM]","IC50 ([2]; E compounds, Table 17) [nM]","IC50 ([3]; E compounds, Table 17) [nM]","IC50 ([4]; E compounds, Table 17) [nM]","IC50 ([5]; E compounds, Table 17) [nM]","IC50 ([6]; E compounds, Table 17) [nM]","IC50 [1, 7] [nM]","IC50 [2, 7] [nM]","IC50 [3, 7] [nM]","IC50 [4, 7] [nM]","IC50 [5, 7] [nM]","IC50 [6, 7] [nM]"
"C[C@@H]1[C@H](NC(=O)c2ccc(C3CC3)cc2)CCCN1c1cnc(C(N)=O)c(Nc2ccc(N3CCN(C4COC4)C[C@@H]3C)cc2)n1 [Example E-142, 5-((2R,3R)-3-(4-cyclopropylbenzamido)-2-methylpiperidin-1-yl)-3-((4-((S)-2-methyl-4-(oxetan-3-yl)piperazin-1-yl)phenyl)amino)pyrazine-2-carboxamide]",10 to 100,1000 to 10000,≤ 10,10 to 100,10 to 100,1000 to 10000,,,,,,
"CN1CCN(Cc2ccc(Nc3nc(N4CCC[C@@H](n5ccc6cc(C7CC7)ccc6c5=O)C4)cnc3C(N)=O)cc2)CC1 [Example A-111, 5-[(3R)-3-(6-cyclopropyl-1-oxo-1,2-dihydroisoquinolin-2-yl)piperidin-1-yl]-3-({4-[(4-methylpiperazin-1-yl)meth-yl]phenyl}amino)pyrazine-2-carboxamide]",,,,,,,100 to 1000,1000 to 10000,10 to 100,100 to 1000,100 to 1000,100 to 1000
"CN1CCN(C(=O)c2ccc(Nc3nc(N4CCC[C@@H](n5ccc6cc(C7CC7)ccc6c5=O)C4)cnc3C(N)=O)cc2)CC1 [Example A-115, 5-[(3R)-3-(6-cyclo-propyl-1-oxo-1,2-dihydroisoquinolin-2-yl)piperidin-1-yl]-3-{[4-(4-methylpiperazine-1-carbonyl)phenyl]amino}pyr-azine-2-carboxamide]",,,,,,,100 to 1000,100 to 1000,10 to 100,100 to 1000,100 to 1000,100 to 1000
"C=CC(=O)N1CC[C@@H](N(C)c2cnc(C(N)=O)c(Nc3ccc(C4CCN(C5CC5)CC4)cc3)n2)C1 [Example E-121, (R)-5-((1-acryloylpyrrolidin-3-yl)(methyl)amino)-3-(4-(1-cyclopropylpiperidin-4-yl)phenylamino)pyrazine-2-carboxamide]",10 to 100,≤ 10,≤ 10,≤ 10,10 to 100,< 10,,,,,,
"C[C@@H]1[C@H](NC(=O)c2ccc(C3CC3)cc2F)CCCN1c1cnc(C(N)=O)c(Nc2ccc(S(=O)(=O)N3CCCC3)cc2)n1 [Example A-175, 5-[(2R,3R)-3-(4-cyclopropyl-2-fluorobenzamido)-2-methylpiperidin-1-yl]-3-{[4-(pyrrolidine-1-sulfonyl)phenyl]amino}pyr-azine-2-carboxamide]",,,,,,,> 10000,1000 to 10000,100 to 1000,> 10000,> 10000,> 10000

# More lines, now with the values ahead:
"IC50 ([1]; E compounds, Table 17) [nM]","IC50 ([2]; E compounds, Table 17) [nM]","IC50 ([3]; E compounds, Table 17) [nM]","IC50 ([4]; E compounds, Table 17) [nM]","IC50 ([5]; E compounds, Table 17) [nM]","IC50 ([6]; E compounds, Table 17) [nM]","IC50 [1, 7] [nM]","IC50 [2, 7] [nM]","IC50 [3, 7] [nM]","IC50 [4, 7] [nM]","IC50 [5, 7] [nM]","IC50 [6, 7] [nM]",SMILES
10 to 100,1000 to 10000,≤ 10,100 to 1000,10 to 100,100 to 1000,,,,,,,"C[C@@H]1[C@H](NC(=O)c2ccc(-c3ncco3)cc2)CCCN1c1cnc(C(N)=O)c(Nc2cnn(C)c2)n1 [Example E-154, 3-((1-methyl-1H-pyrazol-4-yl)amino)-5-((2R,3R)-2-methyl-3-(4-(oxazol-2-yl)benzamido)piperidin-1-yl)pyrazine-2-carboxamide]"
,,,,,,100 to 1000,100 to 1000,10 to 100,100 to 1000,10 to 100,100 to 1000,"C[C@@H]1[C@H](NC(=O)c2ccc(C3CC3)cc2F)CCCN1c1cnc(C(N)=O)c(Nc2ccc(N3CCN(C)C[C@@H]3C)cc2)n1 [Example A-176, 5-[(2R,3R)-3-(4-cyclopropyl-2-fluorobenzamido)-2-methylpiperidin-1-yl]-3-({4-[(2S)-2,4-dimethylpiperazin-1-yl]phenyl}amino)pyrazine-2-carboxamide]"
10 to 100,1000 to 10000,≤ 10,100 to 1000,10 to 100,1000 to 10000,,,,,,,"C[C@@H]1[C@H](NC(=O)c2ccc3c(c2)C(C)(C)OC3)CCCN1c1cnc(C(N)=O)c(Nc2cnn(C)c2)n1 [Example E-153, 5-((2R,3R)-3-(3,3-dimethyl-1,3-dihydroisobenzofuran-5-carboxamido)-2-methylpiperidin-1-yl)-3-((1-methyl-1H-pyrazol-4-yl)amino)pyrazine-2-carboxamide]"
